Marks after values point to notes of the source that are not given here.
Legend:
H460 cancer cell lines = experiment: Anti-cancer activity (tumor volume) in H460 lung cancer tissue-transplanted Balb/c nude mice; details: H460 tumor transplant, paclitaxel 20 mg/kg iv, CKD-516 2.5 mg/kg ip, once a week for three weeks, FIG. 5, FIG. 6
Method: The four-week old male Balb/c nude mice were purchased from Central Lab Animal Inc.
In 20 to 25 days later, the mice were subjected to euthanasia by means of cervical vertebral dislocation, after which a solid cancer proliferated in the mice was sterilely isolated therefrom to obtain fresh cancer tissues, from which connective tissues, necrotic tissues, skins, etc. were removed.
The cancer tissues were divided by 50 mg in a sterile state, and subcutaneously transplanted into the mice by using a 16-gauge trocar. In 12 days after the transplantation, the mice whose cancer tissues were proliferated up to a certain size, were selected and used for the experiment.
Paclitaxel was dissolved in an excipient (excipient 2), which was prepared by mixing cremophor, ethanol and saline at a ratio of 1:1:8, and prepared in accordance with the administered dose for each group as shown in the following table 4.
The anti-cancer activity was determined based on a tumor volume. The tumor volume was obtained by measuring a long axis and a short axis of the tumor by means of electronic callipers (CD-15CPX, Mitutoyo Corp., Japan) and calculating measured values according to a following equation (twice a week):
Tumor volume (mm^3)=(Long axis length×Short axis length^2)/2.

A-549 cancer cell lines = experiment: Anti-cancer activity (tumor volume) in A-549 lung cancer xenograft Balb/c nude mice; format: in vivo, human; details: A549 xenograft, docetaxel 2.5 mg/kg ip once a week, CKD-516 4 mg/kg po daily, eight weeks, FIG. 3, FIG. 4
Source text: A-549 cancer cell lines (1×10^7 cells), which are human lung cancer cell lines purchased from the ATCC, were subcutaneously injected into the mice. Particularly, a needle point was inserted into mice in the left side before injecting cancer cells, and moved from side to side to inject the cancer cells and to identify that an administered solution was not leaked out, such that a tumorigenesis was observed. Animals whose tumor sizes reached 100 mm^3 to 250 mm^3 were selected and used for an experiment.
Experimental groups were randomly divided as shown in the table 3 above. • Vehicle: Daily for eight weeks, oral administration; • Docetaxel: 2.5 mg/kg, once a week for eight weeks, intraperitoneal administration; • CKD-516: 4 mg/kg, daily for eight weeks, oral administration; and • CKD-516+Docetaxel: CKD-516 (4 mg/kg, daily for eight weeks, oral administration) to be administered first+Docetaxel (2.5 mg/kg, once a week for eight weeks, intraperitoneal administration).
For the tumor volume, statistical processing was performed by using a statistical processing program (GraphPad PRISM® Version 5.0, GraphPad Software, the U.S.).

H1975 cell lines = experiment: Anti-cancer activity (tumor volume) in H1975 lung cancer xenograft nude mice; format: in vivo, human; details: CKD-516 3 mg/kg ip, twice a week for three weeks; for Tumor volume / tumor growth, result in words: FIG. 1, FIG. 2
Method: As a human tumor cell line, a lung cancer cell line, i.e., H1975 cell lines were purchased from the American Type Culture Collections (ATCC). One vial of the cell lines was inserted into an RPMI1640 medium (Gibco, 22400) containing a heatinactivated 10% fetal bovine serum (FBS; Gibco, 10082-742), and cultured in a 5% CO2 incubator at 37° C. The resulting cells were washed with PBS, after which a 10-fold dilution of 2.5% Trypsin-EDTA (Gibco, 15090) was added thereto, such that cells were isolated therefrom. Then, centrifugation was performed (at 1,000 rpm for 5 min), after which supernatant thereof was discarded, such that a cell suspension was obtained by means of a new medium. A survival rate was identified with a microscope to make a preparation in an amount of 1.0×10^7 cells/mL.
The five-week old male […] nude mice (Hsd: Athymic Nude-Foxn1^nu) were purchased from Saeron Bio Inc. (Gyeonggi Province in South Korea).
Thus prepared tumor cell lines were subcutaneously (sc) injected by 0.2 ml (2×10^6 cells) into a back of the mice by using a 26-gauge needle syringe. In about three to four weeks after the injection, animals whose tumor sizes reached 170 mm^3 to 220 mm^3 were selected and used for an experiment.
A comparison between a positive control group and groups dosed with a test substance with regard to a negative control group, and a comparison between the positive control group and the groups dosed with a test substance were verified through One-way ANOVA. At this time, assuming that significance was accepted, a post-hoc test was performed with Duncan test, if an equal variance was accepted, and with Dunnett's test, if the equal variance was not accepted. If p-value is 0.05 or less, significance was accepted, and SPSS 10.1, a statistical program in common use, was used.

[1] = date 4/10, docetaxel 6 mg/kg ip
[2] = date 4/14, docetaxel 6 mg/kg ip
[3] = date 4/17, docetaxel 6 mg/kg ip
[4] = date 4/21, docetaxel 6 mg/kg ip
[5] = date 4/24 (end of experiment), docetaxel 6 mg/kg ip

Structure (SMILES) | Tumor volume / tumor growth, result in words (H460 cancer cell lines) | Tumor volume / tumor growth, result in words (A-549 cancer cell lines) | Tumor volume (mm^3), mean (H1975 cell lines; date 4/7, docetaxel 6 mg/kg ip) | Tumor volume (mm^3), mean (H1975 cell lines; [1]) | Tumor volume (mm^3), mean (H1975 cell lines; [2]) | Tumor volume (mm^3), mean (H1975 cell lines; [3]) | Tumor volume (mm^3), mean (H1975 cell lines; [4]) | Tumor volume (mm^3), mean (H1975 cell lines; [5]) | Tumor volume / tumor growth, result in words (H1975 cell lines; docetaxel 6 mg/kg ip)
COc1cc(C(=O)c2ccc(-c3csc(NC(=O)[C@@H](N)C(C)C)n3)cc2-n2cncn2)cc(OC)c1OC [CKD-516, (S)—N-(4-(3-(1H-1,2,4-triazole-1-yl)-4-(3,4,5-trimethoxybenzoyl)phenyl)thiazole-2-yl)-2-amino-3-methylbutanamide] | showed a similar tendency to the group dosed with paclitaxel | the tumor did not almost grow | 121.8 mm^3 | 146.3 mm^3 | 321.3 mm^3 | 432.4* mm^3 | 504.9 mm^3 | 790.7*** mm^3 | showed a similar tendency to the group dosed with docetaxel
CC(=O)O[C@@]12CO[C@@H]1C[C@H](O)[C@@]1(C)C(=O)[C@H](O)C3=C(C)[C@@H](OC(=O)[C@H](O)[C@@H](NC(=O)OC(C)(C)C)c4ccccc4)C[C@@](O)([C@@H](OC(=O)c4ccccc4)[C@H]21)C3(C)C [Docetaxel, docetaxel] |  | no significant difference in a growth rate of the tumor compared to the negative control group | 123.4 mm^3 | 178.0 mm^3 | 309.6 mm^3 | 460.5 mm^3 | 500.2*** mm^3 | 513.9*** mm^3 | a growth of the tumor was decreased over time compared to the negative control group, but the tumor volume was continuously increased
CC(=O)O[C@H]1C(=O)[C@@]2(C)[C@H]([C@H](OC(=O)c3ccccc3)[C@]3(O)C[C@H](OC(=O)[C@H](O)[C@@H](NC(=O)c4ccccc4)c4ccccc4)C(C)=C1C3(C)C)[C@]1(OC(C)=O)CO[C@@H]1C[C@@H]2O [paclitaxel] | a growth of the tumor was decreased over time compared to the negative control group, but the tumor volume was continuously increased |  |  |  |  |  |  |  | 
